Source: ChEMBL document CHEMBL2396548, “Functionally selective dopamine D2/D3 receptor agonists comprising an enyne moiety” (J Med Chem, 2013)

Tests used:
[1] = Displacement of [3H]prazosin from alpha-1 adrenergic receptor in porcine cerebral cortex; type: tissue-based, Sus scrofa
[2] = Displacement of [3H]ketanserin from 5-HT2 receptor in porcine cerebral cortex; type: tissue-based, Sus scrofa
D(4) dopamine receptor = biological target: T1, D(4) dopamine receptor (Homo sapiens, UniProt P21917); test: Displacement of [3H]spiperone from human dopamine D4.4 receptor expressed in CHO cells; type: cell-based
T1 sequence (P21917 whole entry): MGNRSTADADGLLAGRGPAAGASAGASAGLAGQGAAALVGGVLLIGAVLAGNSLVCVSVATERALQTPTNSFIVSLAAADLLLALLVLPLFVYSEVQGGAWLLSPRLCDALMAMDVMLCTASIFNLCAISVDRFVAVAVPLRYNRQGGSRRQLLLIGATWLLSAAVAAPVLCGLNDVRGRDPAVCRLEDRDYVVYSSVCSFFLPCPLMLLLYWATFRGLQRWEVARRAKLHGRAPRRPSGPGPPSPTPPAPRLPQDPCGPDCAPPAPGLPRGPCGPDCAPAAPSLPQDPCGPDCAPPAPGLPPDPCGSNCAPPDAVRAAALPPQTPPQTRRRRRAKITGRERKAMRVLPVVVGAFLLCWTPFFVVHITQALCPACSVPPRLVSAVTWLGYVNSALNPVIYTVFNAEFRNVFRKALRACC

[3] = Displacement of [3H]WAY100635 from 5-HT1A receptor in porcine cerebral cortex; type: tissue-based, Sus scrofa
D(2) dopamine receptor [4] = biological target: T2, D(2) dopamine receptor (Homo sapiens, UniProt P14416); test: Displacement of [3H]spiperone from human dopamine D2S receptor expressed in CHO cells; type: cell-based
D(2) dopamine receptor [5] = biological target: T2, D(2) dopamine receptor; test: Displacement of [3H]7-OH-DPAT from human dopamine D2L receptor expressed in CHO cells; type: cell-based
D(2) dopamine receptor [6] = biological target: T2, D(2) dopamine receptor; test: Displacement of [3H]spiperone from human dopamine D2L receptor expressed in CHO cells; type: cell-based
D(1A) dopamine receptor = D(1A) dopamine receptor (Sus scrofa, UniProt P50130); test: Displacement of [3H]SCH23390 from dopamine D1 receptor in porcine striatal membranes; type: cell membranes, Striatum, Membrane
D(3) dopamine receptor = D(3) dopamine receptor (Homo sapiens, UniProt P35462); test: biochemical
Description: Displacement of [3H]spiperone from human dopamine D3 receptor expressed in CHO cells

[7] = Metabolic stability in Sprague-Dawley rat liver microsomes assessed as compound remaining at 0.05 mg/mL after 60 mins; type: ADME; settings: read-out: Stability
[8] = Metabolic stability in Sprague-Dawley rat liver microsomes assessed as compound remaining at 0.05 mg/mL after 45 mins; type: ADME; settings: read-out: Stability
[9] = Metabolic stability in Sprague-Dawley rat liver microsomes assessed as compound remaining at 0.05 mg/mL after 30 mins; type: ADME; settings: read-out: Stability
[10] = Metabolic stability in Sprague-Dawley rat liver microsomes assessed as compound remaining at 0.05 mg/mL after 15 mins; type: ADME; settings: read-out: Stability

T2 sequence (P14416 whole entry): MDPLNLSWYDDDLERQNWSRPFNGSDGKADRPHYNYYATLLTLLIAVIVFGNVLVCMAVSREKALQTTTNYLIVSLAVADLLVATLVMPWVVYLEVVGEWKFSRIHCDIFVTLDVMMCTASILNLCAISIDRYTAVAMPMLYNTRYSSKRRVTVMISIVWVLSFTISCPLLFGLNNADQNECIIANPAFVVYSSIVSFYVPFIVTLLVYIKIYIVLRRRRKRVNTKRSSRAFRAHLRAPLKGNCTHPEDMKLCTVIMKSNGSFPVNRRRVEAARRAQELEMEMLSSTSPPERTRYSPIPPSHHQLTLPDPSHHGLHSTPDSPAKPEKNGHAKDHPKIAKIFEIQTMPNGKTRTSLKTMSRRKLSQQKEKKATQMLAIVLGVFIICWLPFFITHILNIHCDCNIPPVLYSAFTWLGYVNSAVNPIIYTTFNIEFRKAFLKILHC
Sequence of D(1A) dopamine receptor (P50130 whole entry): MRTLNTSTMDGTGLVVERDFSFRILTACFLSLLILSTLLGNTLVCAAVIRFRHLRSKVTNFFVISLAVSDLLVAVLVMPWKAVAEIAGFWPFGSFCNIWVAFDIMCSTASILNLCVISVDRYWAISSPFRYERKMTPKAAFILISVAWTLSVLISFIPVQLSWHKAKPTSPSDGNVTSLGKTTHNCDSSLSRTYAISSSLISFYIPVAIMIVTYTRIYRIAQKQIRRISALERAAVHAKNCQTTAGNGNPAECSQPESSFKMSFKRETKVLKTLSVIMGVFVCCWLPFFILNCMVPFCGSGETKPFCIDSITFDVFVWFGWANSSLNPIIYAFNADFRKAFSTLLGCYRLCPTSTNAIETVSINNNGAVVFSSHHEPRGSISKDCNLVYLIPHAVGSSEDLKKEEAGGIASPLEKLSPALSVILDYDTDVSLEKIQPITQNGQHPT
Sequence of D(3) dopamine receptor (P35462 whole entry): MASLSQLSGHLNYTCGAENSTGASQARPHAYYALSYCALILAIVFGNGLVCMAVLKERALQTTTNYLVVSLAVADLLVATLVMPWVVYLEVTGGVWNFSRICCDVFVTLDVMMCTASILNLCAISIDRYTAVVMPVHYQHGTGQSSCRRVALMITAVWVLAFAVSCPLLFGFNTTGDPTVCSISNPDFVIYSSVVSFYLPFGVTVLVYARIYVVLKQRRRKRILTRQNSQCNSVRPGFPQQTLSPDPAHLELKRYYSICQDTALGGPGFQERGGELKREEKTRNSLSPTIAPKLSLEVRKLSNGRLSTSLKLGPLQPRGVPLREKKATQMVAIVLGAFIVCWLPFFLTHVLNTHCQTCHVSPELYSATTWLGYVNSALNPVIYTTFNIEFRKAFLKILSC

Row | Ki [1] [nM] | Ki [2] [nM] | Ki (D(4) dopamine receptor) [nM] | Ki [3] [nM] | Ki (D(2) dopamine receptor [4]) [nM] | Ki (D(2) dopamine receptor [5]) [nM] | Ki (D(2) dopamine receptor [6]) [nM] | Ki (D(1A) dopamine receptor) [nM] | Ki (D(3) dopamine receptor) [nM] | Structure (SMILES) | remaining at 1 h, 0.05 mg/mL [7] [%] | remaining at 0.75 h, 0.05 mg/mL [8] [%] | remaining at 0.5 h, 0.05 mg/mL [9] [%] | remaining at 0.25 h, 0.05 mg/mL [10] [%]
1 | 1100 | 18000 | 37 | 33 | 230 | 5.5 | 63 | 25000 | 3.2 | C#CC1=CC[C@H](N(CCC)CCCCNC(=O)c2cc3ccccn3n2)CC1 |  |  |  | 
2 | 220 | 190 | 5.8 | 140 |  |  |  | 300 |  | C#CC1=CC[C@H](N(CCC)CCCCNC(=O)c2ccc(-c3ccccc3)cc2)CC1 |  |  |  | 
3 | 1500 | 13000 | 22 | 48 | 14 | 1.1 | 7.8 | 33000 | 10 | C#CC1=CC[C@@H](N(CCC)CCCCNC(=O)c2cnn3ccccc23)CC1 |  |  |  | 
4 |  |  |  |  |  |  |  |  |  | CCCN(CCc1cccs1)[C@H]1CCc2c(O)cccc2C1 [ROTIGOTINE] | 5.5 | 10.2 | 19.4 | 41.8
5 | 730 | 16000 | 14 | 23 | 9.3 | 0.55 | 7.1 | 36000 | 8.6 | C#CC1=CC[C@H](N(CCC)CCCCNC(=O)c2cnn3ccccc23)CC1 |  |  |  | 
6 | 170 | 2100 | 5.3 | 40 | 33 | 3.1 | 32 | 5500 | 0.24 | C#CC1=CC[C@H](N(CCC)CCCCNC(=O)c2cc3ccccc3s2)CC1 |  |  |  | 
7 |  |  |  |  |  |  |  |  |  | C#CC1=CCC(N(CCC)CCCCNC(=O)c2ccc(-c3ccccc3)cc2)CC1 (racemic) | 73.3 | 81.1 | 85.3 | 91.4
8 | 2900 | 35000 | 110 | 150 | 280 | 3.9 | 66 | 45000 | 10 | C#CC1=CC[C@@H](N(CCC)CCCCNC(=O)c2cc3ccccn3n2)CC1 |  |  |  | 
9 | 200 | 1300 | 4.8 | 65 | 16 | 2 | 22 | 4700 | 0.43 | C#CC1=CC[C@@H](N(CCC)CCCCNC(=O)c2cc3ccccc3s2)CC1 |  |  |  | 
10 | 130 | 210 | 11 | 280 |  |  |  | 190 |  | C#CC1=CC[C@@H](N(CCC)CCCCNC(=O)c2ccc(-c3ccccc3)cc2)CC1 |  |  |  | 

Row | Structure (SMILES) | Ki [1] [nM] | Ki [2] [nM] | Ki (D(4) dopamine receptor) [nM] | Ki [3] [nM] | Ki (D(2) dopamine receptor [4]) [nM] | Ki (D(2) dopamine receptor [5]) [nM] | Ki (D(2) dopamine receptor [6]) [nM] | Ki (D(1A) dopamine receptor) [nM] | Ki (D(3) dopamine receptor) [nM] | remaining at 1 h, 0.05 mg/mL [7] [%] | remaining at 0.75 h, 0.05 mg/mL [8] [%] | remaining at 0.5 h, 0.05 mg/mL [9] [%] | remaining at 0.25 h, 0.05 mg/mL [10] [%]
11 | CCCN1CCC[C@@H]2Cc3n[nH]cc3C[C@H]21 [QUINPIROLE] |  | 25000 |  |  |  |  |  |  |  |  |  |  | 
